IC50 data for 18 molecules are collected here from patent publication EP2881391A1, “Spiroindoline carbocycle derivatives and pharmaceutical compositions thereof” (Bayer Pharma Aktiengesellschaft, priority 2013, dated 2015).

This assay concerns the target T1, human GnRH receptor (Homo sapiens, UniProt P30968).
T1 construct: line established by Prof; Thomas Gudermann; host or cells: CHO cells
T1 sequence (P30968 1-328): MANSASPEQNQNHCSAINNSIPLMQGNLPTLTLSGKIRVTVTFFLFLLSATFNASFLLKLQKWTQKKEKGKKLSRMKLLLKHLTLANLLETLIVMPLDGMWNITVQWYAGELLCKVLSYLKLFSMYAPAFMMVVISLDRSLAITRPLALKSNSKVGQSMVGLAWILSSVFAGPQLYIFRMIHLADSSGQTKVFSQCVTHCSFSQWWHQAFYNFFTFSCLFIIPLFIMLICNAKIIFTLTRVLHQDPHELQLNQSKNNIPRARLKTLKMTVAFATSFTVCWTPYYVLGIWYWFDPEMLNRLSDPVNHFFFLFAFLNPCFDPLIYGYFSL
The assay is described as follows: IP-One HTRF assay (inhibition of GnRH-R activation by buserelin). Type of assay: cell-based. The settings on record: IP-One HTRF assay with buserelin (at EC80) stimulation; CHO cells stably expressing human GnRH receptor; tested 20 µM to 1 nM; read-out: Potency IC50. An excerpt:
By using homogenous time-resolved fluorescence resonance energy transfer (HTRF), the generation of one component of the GnRH-R signalling cascade can be measured. After stimulation of CHO cells stably expressing human GnRH receptor (established by Prof. Thomas Gudermann, currently University of Marburg, Germany; supplied as frozen cell aliquots by Cell Culture Services, Hamburg, Germany) with the EC80 of the GnRH agonist buserelin, Gq protein-coupled receptor signalling cascade is activated resulting in PLC-dependent cleavage of PIP2 to Inositol-1,4,5-triphosphate (IP3) and Diacylglycerol. The second messenger IP3 is degraded intracellularly to myo-inositol. Inhibition of the final degradation step from Inositol-1-phosphate (IP1) to myo-inositol by addition of lithium chloride leads to accumulation of IP1 in the cells. In cell lysates, IP1 can be detected via an antibody-based HTRF detection technology, where IP1 can displace the FRET acceptor IP1-d2 from binding by Terbium-labelled anti-IP1 antibody as donor resulting in a signal decrease. Compounds were tested for their capability of inhibiting GnRH-R activation by buserelin. For all IP-One HTRF® assays reagents of Cisbio Bioassays (IP-One Tb Jumbo kit, #62IPAPEJ; Cisbio Bioassays, Bagnols sur Cèze Cedex, France) were used.
For the assay, frozen cell aliquots were thawed and a cell suspension (3.33x10^6 cells/ml) containing IP1-d2 (dilution 1:40) was prepared and incubated at 37°C. After 1 h 3 µl of the cell suspension were added to 50 nl of a 100-fold concentrated solution of the test compound in DMSO pre-dispensed in a well of a white low-volume 384-well microtiter plate (Greiner Bio-One, Frickenhausen, Germany). The mixture was incubated for 20 min at 22°C to allow for pre-binding of the test compound to the GnRH-R. The receptor signaling cascade was stimulated by addition of 2 µl buserelin or LHRH (at EC50 or EC80) in stimulation buffer (10 mM Hepes pH 7.4, 1 mM CaCl2, 0.5 mM MgCl2, 4.2 mM KCI, 146 mM NaCl, 5.5 mM α-D-Glucose, 0.05% BSA, 125 mM LiCl (final assay concentration 50 mM) in aqua dest.). Plates were incubated for 1 h at 37°C and 5% carbon dioxide before the cells were lysed by adding 3 µl Terbium-labelled anti-IP1 antibody (1:40) diluted in Conjugate & Lysis buffer as supplied with the kit. After an incubation for 1 h at 22°C to enable complete cell lysis and antibody binding to free IP1 or IP1-d2, plates were measured in an HTRF reader, e.g. a RUBYstar, PHERAstar (both BMG Labtechnologies, Offenburg, Germany) or a Viewlux (PerkinElmer LAS, Rodgau-Jügesheim, Germany). From the fluorescence emissions at 665 nm (FRET) and at 620 nm (background signal of Terbium-antibody), the ratio (emission at 665 nm divided by emission at 620 nm) was calculated and the data were normalized (reaction without test compound = 0% inhibition; all other assay components except agonist = 100% inhibition). On the same microtiter plate, compounds were tested at 10 different concentrations in the range of 20 µM to 1 nM (20 µM, 6.7 µM, 2.2 µM, 0.74 µM, 0.25 µM, 82 nM, 27 nM, 9.2 nM, 3.1 nM and 1 nM; dilution series prepared before the assay at the level of the 100-fold conc. stock solutions by serial 1:3 dilutions in 100% DMSO) in duplicate values for each concentration. By using an in-house software, the IC50 values were calculated by a 4 parameter fit. The data reveal that the compounds of the present invention have antagonist activities on the human GnRH receptor. Within the meaning of the present invention the antagonist activity is reflected by the ability of a compound of the invention to antagonize human GnRH receptor stimulation in IP-One HTRF® assay at least three times the standard deviation over the background level.

Broadly, the pIC50 is the negative decadic logarithm of the IC50, by convention in mol/L.

pIC50: −log10 of the molar value.

For `COC(=O)c1cccc(S(=O)(=O)N2c3ccc(C(=O)NCc4ccccc4Cl)cc3C3(CCCCC3)C2C2CC2)c1` (stereo not drawn) [Example 9, methyl 3-({5'-[(2-chlorobenzyl)carbamoyl]-2'-cyclopropylspiro[cyclohexane-1,3'-indol]-1'(2'H)-yl}sulfonyl)benzoate], the pIC50 was 5.64. On to `O=C1CCC2(CC1)c1cc(C(=O)NCc3ncc(C(F)(F)F)cc3Cl)ccc1N(S(=O)(=O)c1ccc(F)cc1)C2C1CC1` (stereo not drawn) [Example 8, N-{[3-chloro-5-(trifluoromethyl)pyridin-2-yl]methyl}-2'-cyclopropyl-1'-[(4-fluorophenyl)sulfonyl]-4-oxo-1',2'-dihydrospiro[cyclohexane-1,3'-indole]-5'-carboxamide], for which the pIC50 is 7.24. Regarding `O=C(NCc1ncccc1C(F)(F)F)c1ccc2c(c1)C1(CCC(O)(C(F)(F)F)CC1)C(C1CC1)N2S(=O)(=O)c1cccc(C(=O)N2CCC2)c1` (single isomer, unassigned) [Example 66-2], the pIC50 was 6.21.

On to `COc1cccc(S(=O)(=O)N2c3ccc(C(=O)Nc4cccc(C(=O)O)c4)cc3C3(CCC(O)(C(F)(F)F)CC3)C2C2CC2)c1` (stereo not drawn) [Example 35, 3-[({2'-cyclopropyl-4-hydroxy-1 '-[(3-methoxyphenyl)su Ifonyl]-4-(trifluoromethyl)-1',2'-dihydrospiro[cyclohexane-1,3'-indol]-5'-yl}carbonyl)amino] benzoic acid], for which the pIC50 was 5.86. Regarding `COC(=O)c1cccc(NC(=O)c2ccc3c(c2)C2(CCC(O)(C(F)(F)F)CC2)C(C2CC2)N3S(=O)(=O)c2ccc(F)cc2)c1` (single isomer, unassigned) [Example 30-2], the pIC50 is 5.80.

On to `Cc1cncc(NC(=O)c2ccc3c(c2)C2(CCC(O)(C(F)(F)F)CC2)C(C2CC2)N3S(=O)(=O)c2ccc(F)cc2)c1` (stereo not drawn) [Example 25, 2'-cyclopropyl-1'-[(4-fluorophenyl)sulfonyl]-4-hydroxy-N-(5-methylpyridin-3-yl)-4-(trifluoromethyl)-1',2'-dihydrospiro[cyclohexane-1,3'-indole]-5'-carboxamide], for which the pIC50 is 6.25. To `CC(C)=CCC1N(S(=O)(=O)c2ccc(F)cc2)c2ccc(C(=O)NCc3ccccc3Cl)cc2C12CCC(O)(C(F)(F)F)CC2` (stereo not drawn) [Example 22, N-(2-chlorobenzyl)-1'-[(4-fluorophenyl)sulfonyl]-4-hydroxy-2'-(3-methylbut-2-en-1-yl)-4-(trifluoromethyl)-1',2'-dihydrospiro[cyclohexane-1,3'-indole]-5'-carboxamide] belongs 6.13.

With `CC(C)=CCC1N(S(=O)(=O)c2ccc(F)cc2)c2ccc(C(=O)NCc3ncccc3C(F)(F)F)cc2C12CCC(O)(C(F)(F)F)CC2` (stereo not drawn) [Example 23, 1'-[(4-fluorophenyl)sulfonyl]-4-hydroxy-2'-(3-methylbut-2-en-1-yl)-4-(trifluoromethyl)-N-{[3-(trifluoromethyl)pyridin-2-yl]methyl}-1',2'-dihydrospiro[cyclohexane-1,3'-indole]-5'-carboxamide], the pIC50 is 6.15. Take `CC(C)=CCC1N(S(=O)(=O)c2ccc(F)cc2)c2ccc(C(=O)Nc3cccc(S(C)(=O)=O)c3)cc2C12CCC(O)(C(F)(F)F)CC2` (stereo not drawn) [Example 15, 1'-[(4-fluorophenyl)sulfonyl]-4-hydroxy-2'-(3-methylbut-2-en-1-yl)-N-[3-(methylsulfonyl)phenyl]-4-(trifluoromethyl)-1',2'-dihydrospiro[cyclohexane-1,3'-indole]-5'-carboxamide]: the pIC50 was 5.89. In the case of `O=C(O)c1cccc(S(=O)(=O)N2c3ccc(C(=O)Nc4ccon4)cc3C3(CCC(O)(C(F)(F)F)CC3)C2C2CC2)c1` (stereo not drawn) [Example 48, 3-{[2'-cyclopropyl-4-hydroxy-5'-(1,2-oxazol-3-ylcarbamoyl)-4-(trifluoromethyl)spiro[cyclohexane-1,3'-indol]-1'(2'H)-yl]sulfonyl}benzoic acid] it was 5.17. Regarding `COC(=O)c1cccc(S(=O)(=O)N2c3ccc(C(=O)NCc4ncc(C(F)(F)F)cc4F)cc3C3(CCC(O)(C(F)(F)F)CC3)C2C2CC2)c1` (stereo not drawn) [Example 28, methyl 3-{[2'-cyclopropyl-5'-({[3-fluoro-5-(trifluoromethyl)pyridin-2-yl]methyl}carbamoyl)-4-hydroxy-4-(trifluoromethyl)spiro[cyclohexane-1,3'-indol]-1'(2'H)-yl]sulfonyl}benzoate], the negative logarithm of the IC50 (pIC50) was 5.75. As for `CC(C)=CCC1N(S(=O)(=O)c2ccc(F)cc2)c2ccc(C(=O)Nc3cccc(S(N)(=O)=O)c3)cc2C12CCC(O)(C(F)(F)F)CC2` (stereo not drawn) [Example 16, 1'-[(4-fluorophenyl)sulfonyl]-4-hydroxy-2'-(3-methylbut-2-en-1-yl)-N-(3-sulfamoylphenyl)-4-(trifluoromethyl)-1',2'-dihydrospiro[cyclohexane-1,3'-indole]-5'-carboxamide], the pIC50 is 5.73. Regarding `NS(=O)(=O)c1cccc(NC(=O)c2ccc3c(c2)C2(CCC(O)(C(F)(F)F)CC2)C(C2CC2)N3S(=O)(=O)c2ccc(F)cc2)c1` (stereo not drawn) [Example 47, 2'-cyclopropyl-1 [(4-fluorophenyl)sulfonyl]-4-hydroxy-N-(3-sulfamoylphenyl)-4-(trifluoromethyl)-1',2'-dihydrospiro[cyclohexane-1,3'-indole]-5'-carboxamide], the pIC50 is 6.21. In the case of `COC(=O)c1cccc(S(=O)(=O)N2c3ccc(C(=O)NCc4ncccc4Cl)cc3C3(CCCCC3)C2C2CC2)c1` (stereo not drawn) [Example 11, methyl 3-{[5'-{[(3-chloropyridin-2-yl)methyl]carbamoyl}-2'-cyclopropylspiro[cyclohexane-1,3'-indol]-1'(2'H)-yl]sulfonyl}benzoate], the pIC50 is 5.91. Regarding `COC(=O)c1cccc(NC(=O)c2ccc3c(c2)C2(CCC(O)(C(F)(F)F)CC2)C(C2CC2)N3S(=O)(=O)c2ccc(F)cc2)c1` (single isomer, unassigned) [Example 30-1], the negative logarithm of the IC50 (pIC50) was 6.85. In the case of `COC(=O)c1cccc(S(=O)(=O)N2c3ccc(C(=O)NCc4ncccc4C(F)(F)F)cc3C3(CCC(O)(C(F)(F)F)CC3)C2C2CC2)c1` (stereo not drawn) [Example 29, methyl 3-{[2'-cyclopropyl-4-hydroxy-4-(trifluoromethyl)-5'-({[3-(trifluoromethyl)pyridin-2-yl]methyl}carbamoyl)spiro[cyclohexane-1,3'-indol]-1'(2'H)-yl]sulfonyl}benzoate] it was 6.21; in that of `O=C1CCC2(CC1)c1cc(C(=O)NCc3ccccc3Cl)ccc1N(S(=O)(=O)c1ccc(F)cc1)C2C1CC1` (single isomer, unassigned) [Example 3-2], 5.99; in that of `COc1cccc(S(=O)(=O)N2c3ccc(C(=O)Nc4ccon4)cc3C3(CCC(O)(C(F)(F)F)CC3)C2C2CC2)c1` (stereo not drawn) [Example 38, 2'-cyclopropyl-4-hydroxy-1'-[(3-methoxyphenyl)su Ifonyl]-N-(1,2-oxazol-3-yl)-4-(trifluoromethyl)-1',2'-dihydrospiro[cyclohexane-1,3'-indole]-5'-carboxamide], 5.77.
